Data on 15 molecules can be found in patent US20240270821A1, “GIP/GLP1/GCG TRI-RECEPTOR AGONISTS AND USES THEREOF” (priority 2023, published 2024).

Assay type in all cases: cell-based
In one assay the target is human GcgR (Homo sapiens, UniProt P47871). In words: Functional cAMP activity in the presence of 1% HSA. Particulars: read-out: cAMP Rel EC50, hGcgR.
The target in assay [1] is T1, hGIPR (Homo sapiens, UniProt P48546).
T1 sequence (P48546 22-466): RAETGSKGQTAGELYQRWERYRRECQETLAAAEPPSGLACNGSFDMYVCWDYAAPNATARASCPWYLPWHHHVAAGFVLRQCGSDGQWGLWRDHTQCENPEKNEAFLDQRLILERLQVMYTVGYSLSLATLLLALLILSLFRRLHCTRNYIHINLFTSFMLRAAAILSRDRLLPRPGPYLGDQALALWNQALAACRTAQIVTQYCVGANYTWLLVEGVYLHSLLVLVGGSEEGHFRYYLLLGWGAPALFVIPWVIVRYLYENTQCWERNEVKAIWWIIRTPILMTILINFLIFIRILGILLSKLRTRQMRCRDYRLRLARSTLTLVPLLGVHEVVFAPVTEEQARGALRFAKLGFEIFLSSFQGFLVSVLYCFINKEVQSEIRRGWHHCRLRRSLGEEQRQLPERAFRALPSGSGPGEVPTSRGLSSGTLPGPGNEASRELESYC
As to the kind of experiment: Functional cAMP activity in the presence of 1% HSA. To be noted: read-out: cAMP Rel EC50, hGIPR.

Assay [2] deals with T2, hGLP-1R (Homo sapiens, UniProt P43220). As to the kind of experiment: Functional cAMP activation in the presence of 0.1% casein (no HSA). Particulars: read-out: Relative cAMP EC50, hGLP-1R.
T2 sequence (P43220 24-463): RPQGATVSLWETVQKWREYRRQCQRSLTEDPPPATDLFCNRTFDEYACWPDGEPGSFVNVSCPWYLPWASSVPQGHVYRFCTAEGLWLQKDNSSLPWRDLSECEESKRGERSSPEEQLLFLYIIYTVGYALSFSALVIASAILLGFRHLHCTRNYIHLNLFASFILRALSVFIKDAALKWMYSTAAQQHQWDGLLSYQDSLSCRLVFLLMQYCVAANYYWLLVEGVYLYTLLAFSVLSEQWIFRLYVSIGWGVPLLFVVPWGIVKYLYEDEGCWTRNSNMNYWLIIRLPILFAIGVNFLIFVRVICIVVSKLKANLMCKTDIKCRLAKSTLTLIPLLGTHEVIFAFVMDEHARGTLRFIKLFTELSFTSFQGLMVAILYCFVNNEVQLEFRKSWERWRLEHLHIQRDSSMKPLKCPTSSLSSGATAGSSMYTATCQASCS
The target in assay [3] is T1, hGIPR. The description is as above. To be noted: read-out: Relative cAMP EC50, hGIPR.
The next assay addresses hGcgR (Homo sapiens, UniProt P47871). The description is as above. Particulars: read-out: Relative cAMP EC50, hGcgR.
Assay [4] has as its target T2, hGLP-1R. In words: Functional cAMP activity in the presence of 1% HSA. Particulars: read-out: cAMP Rel EC50, hGLP-1R.
The mark [5] stands for this setting: in the presence of 0.1% casein (no HSA), geometric mean.
Where [6] appears, read: 0.1% casein, no HSA, geometric mean.

Read-outs that look alike come from different tables or passages of the source. Starred links: 1 amine or outer side, 2 acyl side, 3 side chain; linkers in the order of their positions; H or OH if unused. Non-standard residues stand in square brackets, D forms with d. Groups on a side chain read outwards from the residue. *: point of attachment. C20 diacid = O=C(O)CCCCCCCCCCCCCCCCCCC(=O)*; C18 diacid = O=C(O)CCCCCCCCCCCCCCCCC(=O)*; αMePhe(2-F) = C[C@](N)(Cc1ccccc1F)C(=O)O; γGlu = O=C(O)[C@H](CCC(=O)[*:2])N[*:1]; αMe4Pal = C[C@](N)(Cc1ccncc1)C(=O)O; αMeY = C[C@](N)(Cc1ccc(O)cc1)C(=O)O; 4Pal = N[C@@H](Cc1ccncc1)C(=O)O; αMeL = CC(C)C[C@](C)(N)C(=O)O; αMeS = C[C@](N)(CO)C(=O)O; Orn = NCCC[C@H](N)C(=O)O; AEEA = NCCOCCOCC(=O)O; Aib = CC(C)(N)C(=O)O
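Throughout, for Relative cAMP EC50, hGIPR: intracellular cAMP rise after 30 min at 37 °C read by HTRF against a standard curve, scaled between buffer alone (0%) and top control ligand concentration (100%), four-parameter fit.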
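Throughout, for Relative cAMP EC50, hGLP-1R: intracellular cAMP rise after 30 min at 37 °C read by HTRF, normalized between buffer only (0%) and maximal control ligand (100%), four-parameter variable-slope fit.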
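Throughout, for Relative cAMP EC50, hGcgR: intracellular cAMP rise after 30 min at 37 °C, read by HTRF against a cAMP standard curve, scaled from buffer only (0%) to maximal control ligand response (100%).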

Chain of human GcgR (P47871 26-477): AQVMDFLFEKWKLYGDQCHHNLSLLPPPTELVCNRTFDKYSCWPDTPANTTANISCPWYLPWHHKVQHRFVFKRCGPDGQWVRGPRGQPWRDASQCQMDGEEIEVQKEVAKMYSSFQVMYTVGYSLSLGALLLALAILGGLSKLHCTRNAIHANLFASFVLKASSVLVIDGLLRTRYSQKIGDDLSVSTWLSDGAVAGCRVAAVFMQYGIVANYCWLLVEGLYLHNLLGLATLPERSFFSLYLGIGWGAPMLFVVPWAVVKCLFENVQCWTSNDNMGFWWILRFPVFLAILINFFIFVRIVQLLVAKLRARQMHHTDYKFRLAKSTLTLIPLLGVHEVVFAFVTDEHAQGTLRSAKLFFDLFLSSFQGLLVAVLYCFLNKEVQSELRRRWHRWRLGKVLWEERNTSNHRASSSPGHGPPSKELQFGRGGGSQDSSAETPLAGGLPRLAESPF
Chain of hGcgR (P47871 26-477): as above

The EC50 is the concentration giving half of the maximal effect. On to “H-Y[Aib]QGTFTSD[4Pal]SQ[αMeL]LDKK([Glu-γGlu-C18 diacid])AQ[αMe4Pal]AFIEYLIAGGPSSGAPPPSGSEE-NH2 [Example 1030]”, for which the EC50 at human GcgR worked out at 1830 nM; at hGIPR [1] it was 21 nM; at hGLP-1R [2] (setting [5]), 1.72 nM; at hGIPR [3] (setting [5]), 0.122 nM; on hGcgR (setting [5]) it was 9.42 nM; on hGLP-1R [4] it was 385 nM.
“H-Y[Aib]QGT[αMePhe(2-F)]TSD[4Pal][αMeS]I[αMeL]LD[Orn]K([AEEA-γGlu-C18 diacid])AQ[αMe4Pal]EFI[dE][αMeY]LVEGGPSSGAPPPESE-NH2 [Example 1156]”: the EC50 came out at 337 nM at human GcgR; 1.33 nM on hGIPR [1]; 0.444 nM on hGLP-1R [2] (setting [5]); 0.0127 nM at hGIPR [3] (setting [5]); 2.94 nM at hGcgR (setting [5]); 47.1 nM at hGLP-1R [4].
With `CC[C@H](C)[C@H](NC(=O)[C@H](Cc1ccccc1)NC(=O)[C@H](CCCN)NC(=O)C(C)(C)NC(=O)[C@H](CCC(N)=O)NC(=O)[C@H](C)NC(=O)[C@H](CCCCNC(=O)[C@H](CCC(=O)O)NC(=O)CC[C@H](NC(=O)CCCCCCCCCCCCCCCCC(=O)O)C(=O)O)NC(=O)[C@H](CCCN)NC(=O)[C@H](CC(=O)O)NC(=O)[C@H](CC(C)C)NC(=O)[C@](C)(CC(C)C)NC(=O)[C@@H](NC(=O)[C@](C)(CO)NC(=O)[C@H](Cc1ccncc1)NC(=O)[C@H](CC(=O)O)NC(=O)[C@H](CO)NC(=O)[C@@H](NC(=O)[C@](C)(Cc1ccccc1F)NC(=O)[C@@H](NC(=O)CNC(=O)[C@H](CCC(N)=O)NC(=O)C(C)(C)NC(=O)[C@@H](N)Cc1ccc(O)cc1)[C@@H](C)O)[C@@H](C)O)[C@@H](C)CC)C(=O)N[C@H](CCC(=O)O)C(=O)N[C@@](C)(Cc1ccc(O)cc1)C(=O)N[C@@H](CC(C)C)C(=O)N[C@@H](CCC(N)=O)C(=O)N[C@@H](CCC(=O)O)C(=O)NCC(=O)NCC(=O)N1CCC[C@H]1C(=O)N[C@@H](CO)C(=O)N[C@@H](CO)C(=O)NCC(=O)N[C@@H](CCC(=O)O)C(=O)N1CCC[C@H]1C(=O)N1CCC[C@H]1C(=O)N1CCC[C@H]1C(=O)N[C@@H](CCC(=O)O)C(=O)NCC(=O)N[C@H](C(=O)N[C@@H](CCC(=O)O)C(=O)N[C@@H](CCC(=O)O)C(=O)N[C@@H](CCC(=O)O)C(N)=O)[C@@H](C)O` [Example 594], the 50% effective concentration (EC50) stood at 570 nM on human GcgR; 3.32 nM at hGIPR [1]; 0.561 nM at hGLP-1R [2]; 0.0541 nM at hGIPR [3]; 8.35 nM on hGcgR; 49.1 nM on hGLP-1R [4].
For “H-Y[Aib]QGTFTSDFS[Orn][αMeL]LDKK([γGlu-γGlu-C18 diacid])AQ[Aib]AFIEYLLEGGPSSG[Aib]PPPGGS-NH2 [Example 771]”, the concentration for a half-maximal effect (EC50) worked out at 955 nM on human GcgR; 44.2 nM on hGIPR [1]; 4.38 nM on hGLP-1R [2]; 0.232 nM on hGIPR [3]; 5.05 nM at hGcgR; 665 nM at hGLP-1R [4].
As for “H-Y[Aib]Q[dA]T[αMePhe(2-F)]TSD[4Pal][αMeS]I[αMeL]LD[Orn]K([γGlu-γGlu-C18 diacid])AQ[Aib]EFI[dE][αMeY]LIEGGPSSGAPPPSGGGE-NH2 [Example 1225]”, the 50% effective concentration (EC50) on human GcgR was found to be 275 nM; at hGIPR [1], 3.67 nM; on hGLP-1R [2] (setting [6]), 0.399 nM; at hGIPR [3] (setting [6]) it was 0.0531 nM; on hGcgR (setting [6]), 2.45 nM; on hGLP-1R [4] it was 31.4 nM.
As to “H-Y[Aib]QGTFTSDYSK[αMeL]LDKK([AEEA-γGlu-C20 diacid])AQQAFVQWLIE[dA]GPSSGEPPPSEG-NH2 [Example 342]”, the half-maximal effective concentration (EC50) was found to be 2130 nM at human GcgR; 71.3 nM at hGIPR [1]; 0.419 nM at hGLP-1R [2] (setting [5]); 0.347 nM on hGIPR [3] (setting [5]); 10.2 nM on hGcgR (setting [5]); 62 nM on hGLP-1R [4].
In the case of “H-Y[Aib]QGT[αMePhe(2-F)]TSD[4Pal]SILLD[Orn]K([γGlu-γGlu-C18 diacid])AQ[Aib][Orn]FIE[αMeY]LEEGGPSSGAPPPSGTGE-NH2 [Example 674]”, the EC50 on human GcgR amounted to 168 nM; on hGIPR [1] it was 2.54 nM; at hGLP-1R [2], 0.21 nM; at hGIPR [3], 0.0264 nM; on hGcgR, 2.09 nM; at hGLP-1R [4], 17.3 nM.
Turning to “H-Y[Aib]QGTFTSD[4Pal]SQ[αMeL]LDKK([AEEA-γGlu-C18 diacid])AQ[αMe4Pal]AFIEYLIAGGPSSGAPPPSGSEE-NH2 [Example 1029]”, the EC50 at human GcgR stood at 511 nM; on hGIPR [1] it was 22.3 nM; at hGLP-1R [2] (setting [5]), 1.79 nM; on hGIPR [3] (setting [5]) it was 0.163 nM; at hGcgR (setting [5]) it was 5.35 nM; at hGLP-1R [4], 170 nM.
With “H-Y[Aib]QGT[αMePhe(2-F)]TSD[4Pal]SI[αMeL]LDKK([γGlu-γGlu-C18 diacid])AQ[Aib]AFIEYLEEGGPSSGEPPPSGEGE-NH2 [Example 625]”, the EC50 at human GcgR was 657 nM; at hGIPR [1], 1.81 nM; on hGLP-1R [2], 1.16 nM; on hGIPR [3], 0.0291 nM; at hGcgR, 8.53 nM; at hGLP-1R [4] it was 72.1 nM.
With “H-Y[Aib]QGTFTSDFS[Orn][αMeL]LDKK([AEEA-γGlu-C18 diacid])AQ[Aib]AFIEYLLAGGPSSGEPPPEGS-NH2 [Example 152]”, the concentration for a half-maximal effect (EC50) at human GcgR stood at 1090 nM; at hGIPR [1], 23.2 nM; at hGLP-1R [2] (setting [5]), 4.03 nM; at hGIPR [3] (setting [5]), 0.259 nM; on hGcgR (setting [5]), 6.91 nM; on hGLP-1R [4] it was 491 nM.
In the case of “H-Y[Aib]QGT[αMePhe(2-F)]TSD[4Pal][αMeS]I[αMeL]LD[Orn]K([γGlu-γGlu-C18 diacid])AQ[Aib]QFI[dE][αMeY]LQEGGPSSGEPPPEGTGE-NH2 [Example 529]”, the concentration for a half-maximal effect (EC50) at human GcgR is 398 nM; at hGIPR [1], 1.39 nM; at hGLP-1R [2], 0.467 nM; on hGIPR [3], 0.0273 nM; on hGcgR it was 6.59 nM; on hGLP-1R [4], 24.5 nM.
For the molecule “H-Y[Aib]Q[dA]T[αMePhe(2-F)]TSD[4Pal][αMeS]I[αMeL]LD[Orn]K([AEEA-γGlu-C18 diacid])AQ[Aib]EFI[dE][αMeY]LVEGGPSSGAPPPSGS-NH2 [Example 1204]”, the 50% effective concentration (EC50) at human GcgR was 507 nM; at hGIPR [1] it was 15.8 nM; at hGLP-1R [2] (setting [6]), 0.338 nM; on hGIPR [3] (setting [6]), 0.21 nM; at hGcgR (setting [6]), 3.5 nM; at hGLP-1R [4] it was 37.4 nM.
“H-Y[Aib]QGTFTSD[4Pal]SQ[αMeL]LDKK([AEEA-γGlu-C18 diacid])AQ[αMe4Pal]AFIEWLIEGGPSSGAPPPSGT-NH2 [Example 831]”: the concentration for a half-maximal effect (EC50) at human GcgR is 1450 nM; at hGIPR [1], 38.2 nM; at hGLP-1R [2] (setting [5]), 0.672 nM; on hGIPR [3] (setting [5]), 0.604 nM; on hGcgR (setting [5]), 4.63 nM; at hGLP-1R [4], 237 nM.
Turning to “H-Y[Aib]QGTFTSD[4Pal]SQ[αMeL]LDKK([γGlu-γGlu-C18 diacid])AQ[αMe4Pal]AFIEYLIE[Aib]GPSSGAPPPSGSEE-NH2 [Example 899]”, the concentration for a half-maximal effect (EC50) turned out to be 814 nM at human GcgR; 15.6 nM at hGIPR [1]; 4.11 nM on hGLP-1R [2] (setting [5]); 0.133 nM at hGIPR [3] (setting [5]); 4.4 nM at hGcgR (setting [5]); 592 nM at hGLP-1R [4].
Regarding “H-Y[Aib]QGTFTSDFS[Orn][αMeL]LDKK([AEEA-γGlu-C20 diacid])AQ[Aib]AFIEYLLAGGPSSGAPPPSGSE-NH2 [Example 84]”, the EC50 amounted to 2280 nM on human GcgR; 57.4 nM on hGIPR [1]; 1.61 nM on hGLP-1R [2] (setting [5]); 0.21 nM at hGIPR [3] (setting [5]); 8.48 nM at hGcgR (setting [5]); 701 nM at hGLP-1R [4].
